Measured values published in ChEMBL document CHEMBL1201862, “PubChem BioAssay data set” (2004).
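All cell lines were grown in 96-well plates and treated with compound for 48 hours. GI50 is the concentration that inhibits growth by half.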 Calls of active or inactive are those of the source. No stated cut-off is given here; in the data, active = GI50 up to about 1.1 µM and inactive = higher.

Experiments:
Test in all cases: growth of human tumour cells (NCI), 48 h
COLO 205 = system: COLO 205
SF-268 = system: SF-268
A549 = system: A549
NCI-H226 = system: NCI-H226
UACC-62 = system: UACC-62
OVCAR-5 = system: OVCAR-5
ACHN = system: ACHN
CCRF-CEM = system: CCRF-CEM
SW-620 = system: SW-620
EKVX = system: EKVX
RXF 393 = system: RXF 393
HT-29 = system: HT-29
OVCAR-8 = system: OVCAR-8
NCI-H460 = system: NCI-H460
U-251 = system: U-251
SK-MEL-2 = system: SK-MEL-2

Measured: GI50

CCCCCC(=O)C(C)C1=Nc2nnc(CCCCCCCc3nnc4n3C(=O)C(C(C)C(=O)CCCCC)=N4)n2C1=O (stereo not drawn)
inactive: COLO 205 > 100 µM | SF-268 > 100 µM | A549 > 100 µM | NCI-H226 > 100 µM | UACC-62 > 100 µM | OVCAR-5 > 100 µM | ACHN > 100 µM | CCRF-CEM > 100 µM | SW-620 > 100 µM | EKVX > 100 µM | RXF 393 > 100 µM | HT-29 > 100 µM | OVCAR-8 > 100 µM | NCI-H460 > 100 µM | U-251 > 100 µM

CCCN(CCC)C(=O)c1c([N+](=O)[O-])cc(C(F)(F)F)cc1[N+](=O)[O-]
inactive: COLO 205 15.4 µM | SF-268 > 100 µM | A549 32.5 µM | SK-MEL-2 39.4 µM | NCI-H226 19.3 µM | UACC-62 17.9 µM | OVCAR-5 65.5 µM | ACHN 65.9 µM | CCRF-CEM 62.4 µM | SW-620 27.7 µM | EKVX 52.5 µM | RXF 393 26.2 µM | HT-29 32.5 µM | OVCAR-8 39.1 µM | NCI-H460 37 µM | U-251 64.9 µM

C[C@H]1C(=O)CC[C@]2(C)CCC(C(C)(C)O)CC12O (stereo partly drawn)
inactive: COLO 205 > 100 µM | SF-268 > 100 µM | A549 > 100 µM | SK-MEL-2 > 100 µM | NCI-H226 > 100 µM | UACC-62 > 100 µM | OVCAR-5 > 100 µM | ACHN > 100 µM | CCRF-CEM > 100 µM | SW-620 > 100 µM | EKVX > 100 µM | RXF 393 > 100 µM | HT-29 > 100 µM | OVCAR-8 > 100 µM | NCI-H460 > 100 µM | U-251 > 100 µM

CN(C(=O)C12C3C4C5C3C1(C(=O)C13C6C7C8C6C1C8C73)C5C42)C(C)(C)C (stereo not drawn)
inactive: COLO 205 > 29.8 µM | SF-268 > 50 µM | A549 > 30.1 µM | SK-MEL-2 > 50 µM | NCI-H226 > 50 µM | UACC-62 > 50 µM | OVCAR-5 > 50 µM | ACHN > 50 µM | CCRF-CEM > 24 µM | SW-620 > 20.9 µM | EKVX > 50 µM | RXF 393 > 50 µM | HT-29 > 37.8 µM | OVCAR-8 > 50 µM | NCI-H460 > 32.7 µM | U-251 > 50 µM

CCC(C)OC(=O)C1C2CCC(O2)C1C(=O)O (stereo not drawn)
inactive: COLO 205 > 44.8 µM | SF-268 > 51.2 µM | A549 > 60.7 µM | SK-MEL-2 > 100 µM | NCI-H226 > 100 µM | UACC-62 > 100 µM | OVCAR-5 > 100 µM | ACHN > 72.4 µM | CCRF-CEM > 100 µM | EKVX > 100 µM | RXF 393 > 41.5 µM | HT-29 > 43.4 µM | OVCAR-8 > 70 µM | NCI-H460 24.7 µM | U-251 > 44.3 µM

O=C(c1cccc2ccccc12)N1CCC(C2CCN(C(=O)c3cccc4ccccc34)CC2)CC1
inactive: COLO 205 > 100 µM | SF-268 > 100 µM | A549 > 100 µM | SK-MEL-2 > 100 µM | NCI-H226 > 100 µM | UACC-62 > 100 µM | OVCAR-5 99.1 µM | ACHN > 100 µM | CCRF-CEM > 100 µM | SW-620 > 100 µM | EKVX > 100 µM | RXF 393 > 100 µM | HT-29 > 100 µM | OVCAR-8 > 100 µM | NCI-H460 > 100 µM | U-251 > 100 µM

N#CSCc1nc2ccc(Cl)cc2c(-c2ccccc2)[n+]1[O-]
inactive: COLO 205 60.1 µM | SF-268 25.7 µM | A549 33.8 µM | SK-MEL-2 20.1 µM | NCI-H226 33.7 µM | UACC-62 19.2 µM | OVCAR-5 21 µM | ACHN 16.9 µM | CCRF-CEM 14.5 µM | SW-620 16.6 µM | EKVX 23.2 µM | RXF 393 12.7 µM | HT-29 20 µM | OVCAR-8 19.7 µM | NCI-H460 40.3 µM | U-251 29.4 µM

COc1ccc(C(=O)Nc2ccccc2)cc1[N+](=O)[O-]
inactive: COLO 205 > 100 µM | SF-268 > 100 µM | A549 > 100 µM | SK-MEL-2 > 100 µM | NCI-H226 > 100 µM | UACC-62 > 100 µM | CCRF-CEM > 100 µM | SW-620 > 100 µM | EKVX 46.6 µM | RXF 393 76.7 µM | HT-29 70.3 µM | OVCAR-8 > 100 µM | NCI-H460 > 100 µM | U-251 > 100 µM

COC(=O)CC(=O)OC
inactive: COLO 205 > 100 µM | SF-268 > 100 µM | A549 > 100 µM | SK-MEL-2 > 100 µM | UACC-62 > 100 µM | OVCAR-5 > 100 µM | ACHN > 100 µM | CCRF-CEM > 100 µM | SW-620 > 100 µM | EKVX > 100 µM | RXF 393 > 100 µM | HT-29 > 100 µM | OVCAR-8 > 100 µM | NCI-H460 > 100 µM | U-251 > 100 µM

Clc1ccc(C2=Nc3ccccc3SC(c3ccc(Cl)c(Cl)c3)C2)c(Cl)c1 (stereo not drawn)
inactive: COLO 205 18.5 µM | SF-268 13.2 µM | A549 21 µM | SK-MEL-2 17.4 µM | NCI-H226 19 µM | UACC-62 15.2 µM | OVCAR-5 17.1 µM | ACHN 14.2 µM | CCRF-CEM 3.11 µM | SW-620 6.9 µM | EKVX 16.4 µM | RXF 393 15.6 µM | HT-29 11.4 µM | OVCAR-8 15.3 µM | NCI-H460 17.3 µM | U-251 17.8 µM

CN(C)C(=S)/N=c1\ss/c(=N\C(=S)N(C)C)n1Cc1ccco1
inactive: COLO 205 > 100 µM | SF-268 > 100 µM | A549 > 100 µM | SK-MEL-2 > 100 µM | NCI-H226 > 100 µM | UACC-62 > 100 µM | ACHN > 100 µM | CCRF-CEM > 100 µM | SW-620 > 100 µM | RXF 393 > 100 µM | OVCAR-8 > 100 µM | NCI-H460 > 100 µM | U-251 > 100 µM

Clc1ccc(SCCCCCCCCCCSc2ccc(Cl)cc2)cc1
inactive: COLO 205 > 100 µM | SF-268 > 100 µM | A549 > 73.8 µM | SK-MEL-2 > 56.1 µM | NCI-H226 > 100 µM | UACC-62 > 100 µM | OVCAR-5 > 61 µM | ACHN > 58.7 µM | CCRF-CEM > 100 µM | SW-620 37.5 µM | EKVX > 70 µM | RXF 393 > 100 µM | HT-29 > 100 µM | OVCAR-8 > 61 µM | NCI-H460 > 59.7 µM | U-251 > 57.4 µM

CC(=O)N1CCN(C=S)CC1
inactive: COLO 205 > 100 µM | SF-268 > 100 µM | A549 > 100 µM | NCI-H226 > 100 µM | UACC-62 > 100 µM | OVCAR-5 > 100 µM | ACHN > 100 µM | CCRF-CEM > 100 µM | SW-620 > 100 µM | EKVX > 100 µM | RXF 393 > 100 µM | HT-29 > 100 µM | OVCAR-8 > 100 µM | NCI-H460 > 100 µM | U-251 > 100 µM

O=C1[C@@H]2C(c3cccc([N+](=O)[O-])c3)=NO[C@@H]2C(=O)N1c1ccc(Cc2ccc(N3C(=O)[C@H]4C(c5cccc([N+](=O)[O-])c5)=NO[C@H]4C3=O)cc2)cc1
inactive: COLO 205 > 100 µM | SF-268 > 10 µM | SK-MEL-2 > 100 µM | UACC-62 > 100 µM | OVCAR-5 > 100 µM | ACHN > 100 µM | CCRF-CEM > 100 µM | SW-620 > 100 µM | RXF 393 > 100 µM | HT-29 > 100 µM | OVCAR-8 > 10 µM | NCI-H460 > 100 µM | U-251 > 10 µM

Cc1cc(O)cc2c1O[C@@]1(C)CCC3[C@@]4(C)CC[C@H](O)C(C)(C)C4CC[C@@]3(C)[C@H]1C2 (stereo partly drawn)
inactive: COLO 205 17.5 µM | A549 5.15 µM | NCI-H226 10.7 µM | UACC-62 8.11 µM | ACHN 5.24 µM | CCRF-CEM 2.55 µM | SW-620 6.14 µM | EKVX 12.6 µM | RXF 393 3.56 µM | HT-29 13.3 µM | OVCAR-8 8.45 µM | NCI-H460 4.41 µM | U-251 2.84 µM

Cc1ccc(S(=O)(=O)N/N=C2\CCCCC23CCC(=O)NC3)cc1 (stereo not drawn)
inactive: COLO 205 > 100 µM | SF-268 > 100 µM | A549 > 100 µM | SK-MEL-2 > 100 µM | NCI-H226 > 100 µM | UACC-62 > 100 µM | ACHN > 100 µM | CCRF-CEM > 100 µM | SW-620 > 100 µM | RXF 393 > 100 µM | OVCAR-8 > 100 µM | NCI-H460 > 100 µM | U-251 > 100 µM

COC(=O)CC1C(=O)OCc2c1cc1n(c2=O)Cc2c-1nc1ccccc1c2OC (stereo not drawn)
inactive: COLO 205 > 100 µM | SF-268 19.3 µM | A549 59.8 µM | SK-MEL-2 > 100 µM | UACC-62 19.7 µM | OVCAR-5 58.9 µM | ACHN 23.6 µM | CCRF-CEM 6 µM | SW-620 > 100 µM | EKVX > 100 µM | RXF 393 17.5 µM | HT-29 > 100 µM | OVCAR-8 > 100 µM | NCI-H460 4.16 µM | U-251 68.9 µM

O=C(CC1(O)C(=O)Nc2ccccc21)c1ccncc1 (stereo not drawn)
inactive: COLO 205 > 100 µM | SF-268 > 100 µM | A549 > 100 µM | SK-MEL-2 > 100 µM | NCI-H226 > 100 µM | UACC-62 > 100 µM | OVCAR-5 > 100 µM | ACHN > 100 µM | CCRF-CEM > 100 µM | SW-620 > 100 µM | EKVX > 100 µM | RXF 393 > 100 µM | HT-29 > 100 µM | NCI-H460 > 100 µM | U-251 > 100 µM
